According to patent US11124510B2, “Alkyl chain modified imidazoquinoline TLR7/8 agonist compounds and uses thereof” (Dynavax Technologies Corporation, priority 2017, dated 2021):

How the values were obtained:
CT26 colon carcinoma [1] = assay: Anti-tumor efficacy in combination with anti-PD-1 antibody in dual flank CT26 colon carcinoma-bearing mice; format: in vivo; conditions: for tumor growth inhibition in the injected tumor (right flank) compared to the anti-PD-1 treatment alone / tumor growth inhibition in the distal tumor (left flank) compared to the anti-PD-1 treatment alone: 5,000 ng single intratumoral dose day 14, in combination with anti-PD-1; for tumor growth inhibition in the distal tumor (left flank) compared to the anti-PD-1 treatment alone: day 29; for injected tumor growth inhibition, difference from the anti-PD-1 treatment control at day 29: 5,000 ng single intratumoral dose, in combination with anti-PD-1, Kruskall-Wallis/Dunn
Method: All in vivo procedures were conducted in accordance with approved IACUC protocols. The animals were housed in a facility that is accredited by the AALAC. Wild-type female Balb/c mice (15-20 g) were obtained from Envigo (Hayward, Calif.) and acclimated for 2-3 days prior to use.
The pharmaceutical compositions were made using Compound No. 63-10 or 63-33 at final concentrations of 50,000 ng/mL in a manner similar to that described for Example B2-1. […] On day 0, mice were anesthetized with 1% isoflurane, and 80,000 CT26 tumor cells in 200 uL of RMPI-1640 culture media plus 2.5% fetal bovine serum were injected subcutaneously in both the right and left flanks. Tumors (left and right) were allowed to grow until day 8, when the right and left flank tumor sizes had reached approximately 35 mm^3, at which point mice were injected intraperitoneally with 250 μg of anti-PD-1 antibody formulated in phosphate buffered saline or a phosphate buffered saline vehicle control. The anti-PD-1 treatments were repeated on experimental days 12, 15, 19, 22, and 26. On experimental day 14, when the right (injected) and left (distal) flank tumors had reached approximately 100 mm^3, mice were randomized into treatment groups. […] Tumor sizes were measured twice weekly from days 14 through day 29 with calipers, with tumor volumes calculated using the formula: length, multiplied by width, multiplied by width, divided by 2.

TLR7 = TLR7 (Homo sapiens (Human), UniProt Q9NYK1); assay: TLR7 agonist bioactivity: induction of IFNα protein in pDC-enriched PBMC cultures (ELISA, 24 h); format: cell-based; conditions: for TLR7 (% of Compound No. 63-00 EC50 Value): EC50 expressed as percentage of EC50 of Compound No. 63-00; for EC50: IFNα induction, pDC-enriched human PBMC, 24 hours; for fold loss of TLR7 agonist potency compared to Compound No. 63-00 (IMDQ): less potent than IMDQ
Sequence of TLR7 (Q9NYK1 27-1049): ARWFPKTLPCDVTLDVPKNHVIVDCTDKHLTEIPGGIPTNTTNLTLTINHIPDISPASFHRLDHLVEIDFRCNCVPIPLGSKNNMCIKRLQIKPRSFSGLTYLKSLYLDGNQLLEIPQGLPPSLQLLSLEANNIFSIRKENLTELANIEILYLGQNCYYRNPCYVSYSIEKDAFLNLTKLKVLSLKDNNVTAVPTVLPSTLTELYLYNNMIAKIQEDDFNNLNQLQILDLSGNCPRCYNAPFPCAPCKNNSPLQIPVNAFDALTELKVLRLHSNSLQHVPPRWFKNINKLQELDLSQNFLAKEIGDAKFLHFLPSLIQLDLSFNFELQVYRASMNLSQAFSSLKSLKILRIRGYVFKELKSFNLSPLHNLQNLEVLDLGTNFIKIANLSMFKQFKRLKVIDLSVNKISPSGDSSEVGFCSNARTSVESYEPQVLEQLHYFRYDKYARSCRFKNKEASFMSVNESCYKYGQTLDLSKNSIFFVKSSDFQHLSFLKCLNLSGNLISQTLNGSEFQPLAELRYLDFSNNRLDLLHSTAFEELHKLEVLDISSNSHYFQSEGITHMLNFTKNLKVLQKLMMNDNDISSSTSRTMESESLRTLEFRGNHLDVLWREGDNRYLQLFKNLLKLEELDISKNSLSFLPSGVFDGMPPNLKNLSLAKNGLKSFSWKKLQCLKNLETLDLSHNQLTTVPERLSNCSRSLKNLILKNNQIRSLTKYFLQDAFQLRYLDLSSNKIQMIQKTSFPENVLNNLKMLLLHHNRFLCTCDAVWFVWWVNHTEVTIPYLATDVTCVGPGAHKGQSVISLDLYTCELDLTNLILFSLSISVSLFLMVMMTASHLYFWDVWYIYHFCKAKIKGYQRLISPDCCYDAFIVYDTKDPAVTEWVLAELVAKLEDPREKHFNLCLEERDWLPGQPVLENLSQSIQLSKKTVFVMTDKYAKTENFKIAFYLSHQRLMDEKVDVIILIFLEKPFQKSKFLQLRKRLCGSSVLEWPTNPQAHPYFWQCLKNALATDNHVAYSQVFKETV
Method: Plasmacytoid dendritic cell (pDC)—enriched peripheral blood mononuclear cells (PBMCs) were prepared from the blood of a series of human donors (3-5 donors/experiment). PBMCs were isolated using Ficoll-Paque Premium® (GE Healthcare, Chicago Ill.) using methods well known to those in the art. pDCs were magnetically isolated from the total recovered PBMC population using CD304 (BDCA-4/Neuropilin-1) microbeads (Miltenyi Biotec, San Diego Calif.), according to the manufacturer's instructions. Isolated pDCs were then added back to between 1 and 2×10^8 of the corresponding donor's PBMCs for relative enrichment of this cell type. […] Culture supernatants were collected and interferon-alpha (IFNα) protein levels were measured by ELISA (MabTech, Cincinnati Ohio), according to the manufacturer's instructions.

serum IL-6 and IL-12p40 = assay: In vivo systemic immune activation assay: serum IL-6 and IL-12p40 by ELISA after single subcutaneous injection; set-up: species or system mice; conditions: 5 μg subcutaneously in footpad, 95% sesame oil/5% ethanol, ± SEM
Method: Small molecule TLR7 and TLR7/8 agonists derived from the 1H-imidazo[4,5-c]quinoline privileged template (see e.g., Imiquimod, Resiquimod) are known to rapidly distribute to the systemic compartment following intratumoral, subcutaneous, or intramuscular injection. Broad systemic distribution of these agonist compounds in wild-type mice induces TLR7-dependent cytokine responses, primarily in spleen and liver cells, which can subsequently be detected in the serum within 3-6 hours. The rapid increase in serum cytokine biomarkers (e.g., IL-6 and IL-12p40) can be used to assess the kinetics of systemic distribution of a locally administered TLR agonist.
The kinetics of distribution of pharmaceutical compositions comprised of Compound Nos. 63-00, 63-17, or 63-10 formulated in 95% sesame oil/5% ethanol (v/v) were assessed following a single subcutaneous injection in wild-type mice. All in vivo procedures were conducted in accordance with approved Institutional Animal Care and Use Committee (IACUC) protocols. The animals were housed in a facility that is accredited by the Association for Accreditation and Laboratory Animal Care (AALAC, Frederick Md.). Wild-type female BALB/c mice (15-20 gm) were obtained from Envigo (Hayward, Calif.) and acclimated for 2-3 days prior to use.
The pharmaceutical compositions were made with the three compounds, at a final concentration of 200 μg/mL, in a manner similar to that described in Example B2-1. At T=0, groups of 3 mice were anesthetized with 1% isoflurane and injected subcutaneously in the right footpad with 5 μg of each of the three compounds, or a vehicle control, in 25 uL of 95% sesame oil/5% ethanol (v/v). Then, at T=3, 6, and 24 hours, three animals from each group were anesthetized with 1% isoflurane to facilitate blood collection by cardiac puncture. Samples were processed to serum, and stored at −20° C. for further analysis.

TLR8 = TLR8 (Homo sapiens (Human), UniProt Q9NR97); assay: TLR8 agonist bioactivity: induction of TNFα protein in monocyte cultures (ELISA, 24 h); format: cell-based; conditions: for EC50: TNFα induction, human monocytes, 24 hours; for fold increase of TLR8 agonist potency compared to Compound No. 63-00 (IMDQ): more potent than IMDQ; for TLR8 (% of Compound No. 63-00 EC50 Value): EC50 expressed as percentage of EC50 of Compound No. 63-00
Sequence of TLR8 (Q9NR97 27-1041): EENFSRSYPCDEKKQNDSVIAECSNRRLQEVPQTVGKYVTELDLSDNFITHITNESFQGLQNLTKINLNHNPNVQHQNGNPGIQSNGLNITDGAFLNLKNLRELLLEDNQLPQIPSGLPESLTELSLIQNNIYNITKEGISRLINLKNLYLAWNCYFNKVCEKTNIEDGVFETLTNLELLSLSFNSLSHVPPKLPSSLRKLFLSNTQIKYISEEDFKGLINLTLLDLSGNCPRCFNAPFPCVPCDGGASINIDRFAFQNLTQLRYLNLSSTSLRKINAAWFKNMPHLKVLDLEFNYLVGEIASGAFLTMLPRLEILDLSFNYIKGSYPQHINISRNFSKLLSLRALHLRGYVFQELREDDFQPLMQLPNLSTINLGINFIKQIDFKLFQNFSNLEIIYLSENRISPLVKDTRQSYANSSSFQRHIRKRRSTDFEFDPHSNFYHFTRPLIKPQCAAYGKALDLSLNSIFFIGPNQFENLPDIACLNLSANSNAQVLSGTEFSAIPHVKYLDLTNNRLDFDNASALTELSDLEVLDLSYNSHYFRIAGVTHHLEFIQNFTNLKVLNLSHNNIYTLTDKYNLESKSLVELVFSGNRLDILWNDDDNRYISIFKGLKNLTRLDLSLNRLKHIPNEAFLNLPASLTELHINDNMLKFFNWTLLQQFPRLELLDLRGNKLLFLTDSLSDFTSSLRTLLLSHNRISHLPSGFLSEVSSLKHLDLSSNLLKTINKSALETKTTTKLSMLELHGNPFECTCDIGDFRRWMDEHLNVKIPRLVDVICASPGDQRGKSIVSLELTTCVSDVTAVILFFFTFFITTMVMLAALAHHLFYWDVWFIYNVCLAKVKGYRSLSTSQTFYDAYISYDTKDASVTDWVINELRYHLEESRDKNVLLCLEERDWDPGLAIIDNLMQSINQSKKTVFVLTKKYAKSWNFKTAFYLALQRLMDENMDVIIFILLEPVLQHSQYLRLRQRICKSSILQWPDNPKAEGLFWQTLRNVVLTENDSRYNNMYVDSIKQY
Method: Monocytes were magnetically isolated from PBMCs, prepared as described above, following labeling with CD14 microbeads (Miltenyi Biotec, San Diego Calif.), according to the manufacturer's instructions. […] Culture supernatants were collected and tumor necrosis factor alpha (TNFα) protein levels were measured by ELISA (MabTech, Cincinnati Ohio), according to the manufacturer's instructions.

CT26 colon carcinoma [2] = assay: Anti-tumor efficacy, repeated intratumoral dosing in CT26 colon carcinoma-bearing wild-type mice; format: in vivo; conditions: 0.5-20 μg in 95% sesame oil/5% ethanol
Method: The effect of repeated weekly doses of intratumorally delivered pharmaceutical compositions comprised of Compound No. 63-10, 63-18, or 63-33 formulated in 95% sesame oil/5% ethanol (v/v) on tumor growth inhibition was assessed in syngeneic CT26 colon carcinoma-bearing Balb/c mice. All in vivo procedures were conducted in accordance with approved Institutional Animal Care and Use Committee (IACUC) protocols. The animals were housed in a facility that is accredited by the Association for Accreditation and Laboratory Animal Care (AALAC, Frederick, Md.). Wild-type female Balb/c mice (15-20 gm) were obtained from Envigo (Hayward, Calif.) and acclimated for 2-3 days prior to use.
The pharmaceutical compositions were made with the three compounds at final concentrations of 5, 50, and 200 μg/mL in a manner similar to that described in Example B2-1. […] On day 0, mice were anesthetized with 1% isoflurane and 80,000 CT26 tumor cells in 200 uL of RMPI-1640 culture media plus 2.5% fetal bovine serum were injected subcutaneously in the right flank. Tumors were allowed to grow until they were ˜35 mm^3, at which point animals were assigned to groups to begin treatment. Mice were injected weekly for 4 weeks intratumorally with 100 uL of a pharmaceutical composition comprising 20, 5, or 0.5 μgs of Compound No. 63-10, or 20 or 5 μgs of Compound Nos. 63-18, or 63-33 formulated in 95% sesame oil/5% ethanol (v/v), or a vehicle control, twice weekly for 3 weeks (experimental days 9, 12, 16, 19, 23, and 26). The TLR9 CpG agonist was injected intratumorally with 100 μL of a pharmaceutical composition comprised of 50 μgs of compound formulated in phosphate buffered saline on the same dosing schedule. Tumor sizes were measured twice weekly from days 8 through day 30 with calipers, with tumor volumes calculated using the formula: length, multiplied by width, multiplied by width, divided by 2.

Structure (SMILES) | tumor growth inhibition in the injected tumor (right flank) compared to the anti-PD-1 treatment alone (CT26 colon carcinoma [1]) | tumor growth inhibition in the distal tumor (left flank) compared to the anti-PD-1 treatment alone (CT26 colon carcinoma [1]) | injected tumor growth inhibition, difference from the anti-PD-1 treatment control at day 29 (CT26 colon carcinoma [1]) | TLR7 (% of Compound No. 63-00 EC50 Value) (TLR7) [%] | serum IL-6 (serum IL-6 and IL-12p40; 3 hours) [pg/mL] | serum IL-12p40 (serum IL-6 and IL-12p40; 3 hours) | serum IL-6 (serum IL-6 and IL-12p40; 6 hours) [pg/mL] | serum IL-12p40 (serum IL-6 and IL-12p40; 6 hours) | serum IL-6 (serum IL-6 and IL-12p40; 24 hours) [pg/mL] | serum IL-12p40 (serum IL-6 and IL-12p40; 24 hours) | EC50 (TLR7) [nM] | fold loss of TLR7 agonist potency compared to Compound No. 63-00 (IMDQ) (TLR7) [fold] | EC50 (TLR8) [nM] | CT26 tumor growth control compared to the vehicle control (CT26 colon carcinoma [2]) | fold increase of TLR8 agonist potency compared to Compound No. 63-00 (IMDQ) (TLR8) | TLR8 (% of Compound No. 63-00 EC50 Value) (TLR8) [%]
CCCCc1nc2c(N)nc3ccccc3c2n1Cc1ccc(CN)cc1 [Compound No. 63-00, 1-(4-(aminomethyl)benzyl)-2-butyl-1H-imidazo[4,5-c]quinolin-4-amine, reference compound] | greater tumor growth inhibition | trend towards greater tumor growth inhibition | significantly different | 100 | 772 ± 141 | 139,767±31,024 pg/mL | 160 ± 19 | 142,359±22,350 pg/mL | 32 ± 2 | 7,796±1,545 pg/mL |  |  |  |  |  | 
CCCCCNCc1ccc(Cn2c(CCCC)nc3c(N)nc4ccccc4c32)cc1 [Compound No. 63-17, 2-butyl-1-(4-((pentylamino)methyl)benzyl)-1H-imidazo[4,5-c]quinolin-4-amine] |  |  |  |  | 853 ± 539 | 84,731±32,530 pg/mL | 414 ± 105 | 258,645±19,982 pg/mL | 33 ± 4 | 19,546±2,116 pg/mL | 2 | 2 | 104 |  |  | 
CCCCCCNCc1ccc(Cn2c(CCCC)nc3c(N)nc4ccccc4c32)cc1 [Compound No. 63-18, 2-butyl-1-(4-((hexylamino)methyl)benzyl)-1H-imidazo[4,5-c]quinolin-4-amine] |  |  |  |  |  |  |  |  |  |  | 15 |  | 213 | robust CT26 tumor growth control | slightly improved | 
CCCCc1nc2c(N)nc3ccccc3c2n1Cc1ccc(CNCCC2CC2)cc1 [Compound No. 63-33, 2-butyl-1-(4-(((2-cyclopropylethyl)amino)methyl)benzyl)-1H-imidazo[4,5-c]quinolin-4-amine] | greater tumor growth inhibition | trend towards greater tumor growth inhibition | significantly different | 290 |  |  |  |  |  |  | 4 | 4 | 75 | robust CT26 tumor growth control | 2.9 fold | 41
CCCCc1nc2c(N)nc3ccccc3c2n1Cc1ccc(CNCC2(C)CCC2)cc1 [Compound No. 63-45, 2-butyl-1-(4-((((1-methylcyclobutyl)methyl)amino)methyl)benzyl)-1H-imidazo[4,5-c]quinoline-4-amine] |  |  |  | 190 |  |  |  |  |  |  |  | 1.9 |  |  | 7.7 fold | 13
CCCCc1nc2c(N)nc3ccccc3c2n1Cc1ccc(CNCC2CC(C)C2)cc1 (stereo not shown) [Compound No. 63-46, 2-butyl-1-(4-((((3-methylcyclobutyl)methyl)amino)methyl)benzyl)-1H-imidazo[4,5-c]quinolin-4-amine] |  |  |  | 400 |  |  |  |  |  |  |  |  |  |  |  | 39
CCCCc1nc2c(N)nc3ccccc3c2n1Cc1ccc(CNCC(C)(C)C2CCC2)cc1 [Compound No. 63-47, 2-butyl-1-(4-(((2-cyclobutyl-2-methylpropyl)amino)methyl)benzyl)-1H-imidazo[4,5-c]quinolin-4-amine] |  |  |  | 900 |  |  |  |  |  |  |  | 9.0 |  |  | slightly improved to slightly inferior | 108
